From patent US9050354B2, “Therapeutic antisense oligonucleotide compositions for the treatment of inflammatory bowel disease” (Atlantic Pharmaceuticals (Holdings) Limited, priority 2004, dated 2015)
Oligonucleotides are written 5' to 3', each unit as a sugar letter and its base; * is a phosphorothioate linkage, no mark a phosphodiester; rarer units and linkages stand in square brackets, end groups in braces. Plain capitals give the bases only. d = 2'-deoxy (DNA)

Legend:
[1] = enema, 10 to 12 hours post-administration; about two thirds N-acetyl metabolite; cited from earlier work
[2] = test system: chronic, unremitting pouchitis; conditions: HPMC enema 240 mg nightly for 6 weeks, twelve patients (p=0.001); cited from earlier work
[3] = test system: moderate to severe ulcerative colitis; experiment: Subset analysis of patients with moderate to severe disease; type: in vivo, human; conditions: moderate to severe subset (n=26)
Experimental: An analysis of a subset of the population (n=26) of the study with moderate to severe disease was performed. Moderate to severe disease was defined as patients having the following scores using the DAI criteria: baseline stool frequency ≧2, rectal bleeding ≧2, endoscopy ≧2, and investigator's assessment ≧1.

[4] = human, in vivo, sc
[5] = test system: mild to moderate active left sided ulcerative colitis; experiment: Open label study CS-28: pharmacological activity of ISIS 2302 enema; type: in vivo, human; conditions: 240 mg enema nightly for six weeks
Source text: All patients entering the study had moderate to severe mucosal disease at baseline (modified Mayo score, endoscopic appearance component of DAI, of 2 or greater at baseline). […] This was substantially higher than expected.

[6] = test system: mild to moderate active distal ulcerative colitis
Experimental: The safety and efficacy of four different dosing regimens of ISIS 2302 enema was assessed for the treatment of ulcerative colitis were analyzed in a placebo-controlled, double-blinded Phase 2 study.
Patients were equally randomized into one of five study arms.
240 mg ISIS 2302 nightly for six weeks.
240 mg ISIS 2302 for 10 consecutive nights followed by 240 mg ISIS 2302 every other night for remaining 32 nights.
240 mg of ISIS 2302 every other night for six weeks.
120 mg of ISIS 2302 for 10 consecutive nights followed by 120 mg of ISIS 2302 every other night for the remaining 32 nights.
Placebo enema nightly for six weeks.
All patients received either a placebo enema or ISIS 2302 enema nightly for six weeks. Patients in arms 2 and 4 received placebo enemas on alternate nights when ISIS 2302 was administered on alternate days.

[7] = in vivo
Experimental: A population of 15 patients with mild to moderate active left sided ulcerative colitis (DIA 3-10) with mucosal friability were studied.
Patients were given 240 mg of ISIS 2302 enema nightly for six weeks. Endoscopic mucosal biopsy samples were taken at baseline and at the end of therapy. Intensive 24-hour plasma pharmacokinetic (PK) sampling was conducted on all patients after the first and last enema dose for quantitative drug analysis. End of treatment colonic biopsy samples were collected for local quantitative PK evaluation from the descending colon.
PK and clinical data from the first 12 patients were analyzed.

Crohn's disease = conditions: intravenous, cited from earlier work
[8] = test system: mild to moderate ulcerative colitis; conditions: 240 mg/day rectally for 28 days; placebo 50%; cited from earlier work
[9] = human, in vivo, iv
Experimental: This was a double-blind, placebo-controlled, randomized (3:1, drug: placebo) study. Four healthy male volunteers were enrolled in each of seven single dose (0.06, 0.12, 0.24, 0.5, 1.0, 1.5 and 2.0 mg/kg) and multiple dose groups (0.2, 0.5, 1.0 and 2.0 mg/kg every other day for four doses). Groups were studied in a rising-dose fashion, and multiple dosing commenced after the first five single groups had completed the trial. […] Subjects remained recumbent, with continuous ECG monitoring for four hours after the beginning of each infusion. Before and at intervals after each infusion, supine blood pressure and pulse, clotting screen including aPTT, thrombin time, prothrombin time, serum complement split products C3a and C5a, neutrophil count, urine microproteins, and standard laboratory safety screen (hematology, blood biochemistry and urinalysis) were measured.
Complement split products were measured by commercially available C3a and C5a assay kits (Amersham).
Drug analysis was performed by capillary gel electrophoresis (CGE) as described by Leeds et al. (Anal. Biochem., 235:36-43, 1996). A phosphorothioate standard oligonucleotide composed of 27 thymidine nucleotides (T27) was added to both plasma and urine as an internal standard. The linear range of concentrations of oligonucleotides detectable in plasma using this method was 10 nM to 20 μM (approximately 0.07 to 140 μg/ml).

Compound | plasma levels [1] | primary endpoint of reduction of PDAI at week 6 [2] | change in DAI vs baseline and placebo ([3]; every other night dosing, through week 6) | change in DAI vs baseline and placebo ([3]; nightly dosing, through week 18) | plasma bioavailability [4] | patients with DAI significantly improved from baseline to week 6 [5] | patients with mucosal healing and resolution of friability (modified Mayo score of 0 or 1) ([5]; at completion of the study) | subjects remaining in remission at week 30 of those in remission after 6 weeks ([6]; 240 mg group, placebo 4 of 9 (p=0.12)) | median duration of response ([6]; 240 mg group, placebo <3 months) | response rate vs placebo ([6]; 240 mg nightly, weeks 18 and 30 (p=0.04 and 0.03)) | stool frequency and rectal bleeding (components of DAI) ([6]; ISIS 2302 enema treatment) | response vs placebo ([6]; the 3 lower dose groups) | Maximum plasma concentrations (Cmax) ([7]; human, 240 mg) | Mean AUC ([7]; human, 240 mg) | systemically available share of the administered dose [7] | efficacy in Phase II studies (Crohn's disease; some subsets of patients) | efficacy on clinical remission and disease activity index scores (Crohn's disease; two Phase III trials, moderate to severe Crohn's disease) | patients requiring additional surgical or medical intervention over baseline during six months [8] | n-1, n-2 and n-3 metabolites as share of total oligonucleotide in plasma [9]
Nc1ccc(O)c(C(=O)O)c1 [mesalamine] | 2000 ng/mL | – | – | – | – | – | – | – | – | – | – | – | – | – | – | – | – | – | –
ISIS 2302: 20-base phosphorothioate oligodeoxynucleotide 5′-GCCCAAGCTGGCATCCGTCA-3′ hybridizing to the 3′-untranslated region of human ICAM-1 mRNA (antisense dG*dC*dC*dC*dA*dA*dG*dC*dT*dG*dG*dC*dA*dT*dC*dC*dG*dT*dC*dA) | – | reached | significant (p≦0.05) decrease in DAI | significant (p≦0.05) decrease in DAI | about 50% | 9 of 12 | Seven of 12 | 10 of 13 | ≥ 6 months | significantly better response rate than placebo | durable reduction | failed to demonstrate statistical improvement over placebo | 2.2 to 38 ng/mL | 0.124 µg·h/mL | less than 1% | suggested efficacy | ineffective | None | 20%
